Key:
[1] = target: T1, glucocorticoid receptors (GR) in SW1353/MMTV-5 cells (Homo sapiens, UniProt P04150); assay: GR functional assay using SW1353/MMTV-5 cells (MMTV-luciferase reporter); assay type: cell-based
T1 construct: contains endogenous glucocorticoid receptors; endogenous in cells; host or cells: SW1353/MMTV-5 (human chondrosarcoma, stably transfected with the pMAMneo-Luc reporter only)
T1 sequence (P04150 1-777): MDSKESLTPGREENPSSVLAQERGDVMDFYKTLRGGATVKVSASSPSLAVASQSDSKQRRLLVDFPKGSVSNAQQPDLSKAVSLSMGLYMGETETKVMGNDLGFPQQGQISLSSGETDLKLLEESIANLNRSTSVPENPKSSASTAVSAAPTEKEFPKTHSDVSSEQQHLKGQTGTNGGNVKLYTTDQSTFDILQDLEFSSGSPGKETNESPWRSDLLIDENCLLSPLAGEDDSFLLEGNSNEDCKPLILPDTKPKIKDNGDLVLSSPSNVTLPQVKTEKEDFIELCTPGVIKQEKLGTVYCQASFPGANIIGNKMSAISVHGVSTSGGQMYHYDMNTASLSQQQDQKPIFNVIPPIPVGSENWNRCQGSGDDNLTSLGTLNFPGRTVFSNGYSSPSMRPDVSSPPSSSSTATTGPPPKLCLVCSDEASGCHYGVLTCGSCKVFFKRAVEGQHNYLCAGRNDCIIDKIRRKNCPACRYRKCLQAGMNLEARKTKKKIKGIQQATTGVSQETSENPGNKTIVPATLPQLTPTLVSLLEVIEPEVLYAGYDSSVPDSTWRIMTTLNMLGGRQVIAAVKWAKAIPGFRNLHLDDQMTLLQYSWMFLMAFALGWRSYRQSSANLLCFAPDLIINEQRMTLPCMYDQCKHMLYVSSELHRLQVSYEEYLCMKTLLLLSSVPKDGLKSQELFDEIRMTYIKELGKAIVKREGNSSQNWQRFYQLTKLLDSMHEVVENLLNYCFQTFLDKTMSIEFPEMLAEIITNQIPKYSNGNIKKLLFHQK
Method: SW1353/MMTV-5 is an adherent human chondrosarcoma cell line that contains endogenous glucocorticoid receptors. It was transfected with a plasmid (pMAMneo-Luc) encoding firefly luciferase located behind a glucocorticoid-responsive element (GRE) derived from a viral promoter (long terminal repeat of mouse mammary tumor virus). A stable cell line SW1353/MMTV-5 was selected with geneticin, which was required to maintain this plasmid.
SW1353/MMTV-5 cells were distributed in 96-well plates and incubated in medium (without geneticin) for 24 hrs (in the absence of CO2).

[2] = target: T2, Human Recombinant Glucocorticoid Receptor (Homo sapiens, UniProt P04150); assay: Glucocorticoid receptor binding displacement assay with 3H-dexamethasone; details: displacement of 2.5 nM 3H-dexamethasone; Ki from IC50 by Cheng-Prusoff; read-out: GR Binding Ki
T2 construct: This GR was a full-length steroid hormone receptor likely to be associated with heat-shock and other endogenous proteins; host or cells: baculovirus-infected insect cells
T2 sequence (P04150 1-777): T1 sequence (P04150 1-777)
Method: The source of the receptor was recombinant baculovirus-infected insect cells. This GR was a full-length steroid hormone receptor likely to be associated with heat-shock and other endogenous proteins.
For the Primary Screen, test compounds were tested at 1 μM in duplicate. These compounds were diluted from 10 mM stock in 100% DMSO. After dilution to 100 μM, 5 μl were added to 245 μl assay buffer to obtained 2 μM compound and 2% DMSO.
For the IC50 determinations, test compounds were tested at 6 concentrations in duplicate (concentration range depends on % inhibition binding that was obtained in the Primary Screen). Test compounds were diluted from 10 mM stock in 100% DMSO. The tested solutions were prepared at 2× final assay concentration in 2% DMSO/assay buffer.
All reagents and the assay plate were kept on ice during the addition of reagents. […] After the additions, the incubation mixture was mixed and incubated for 2.5 hrs at 4° C.
After 2.5 hrs incubation, unbound counts were removed with dextran coated charcoal (DCC) as follows: 25 μl of DCC solution (10% DCC in assay buffer) was added to all wells and mixed (total volume 225 μl). The plate was centrifuged at 4000 rpm for 10 minutes at 4° C. 75 μl of the supernatants (i.e.⅓ of total volume) was carefully pipetted into an optiplate. 200 μl of scintillation cocktail were added (Microscint-40, Packard Bioscience. B.V.). The plate was vigorously shaken for approx. 10 minutes and counted on Topcount.
The IC50 values were converted to Ki (the inhibition constant) using the Cheng-Prusoff equation. Test results are presented in Tablel.
Reagents: Assay buffer: 10 mM potassium phosphate buffer pH 7.6 containing 5 mM DTT, 10 mM sodium molybdate, 100 μM EDTA and 0.1% BSA.

SMILES	Ki [1] [nM]	Ki [2] [nM]
O=C(OC1CCC1)[C@]12Cc3cnn(-c4ccc(F)cc4)c3C=C1CCN(S(=O)(=O)c1ccc(N3CCOCC3)nc1)C2 [Example 50, (R)-1-(4-Fluorophenyl)-6-(6-morpholin-4-yl-pyridine-3-sulfonyl]-1,4,5,6,7,8-hexahydro-1,2,6-triaza-cyclopenta[b]naphthalene-4a-carboxylic acid cyclobutyl ester]	< 10	0.5 to 1
CCOC(=O)[C@]12Cc3cnn(-c4ccc(F)cc4)c3C=C1CCN(S(=O)(=O)c1ccc(N3CCOCC3)nc1)C2 [Example 48, (R)-1-(4-Fluorophenyl)-6-(6-morpholin-4-yl-pyridine-3-sulfonyl]-1,4,5,6,7,8-hexahydro-1,2,6-triaza-cyclopenta[b]naphthalene-4a-carboxylic acid ethyl ester]	10 to 50	0.5 to 1
COC[C@]12Cc3cnn(-c4ccc(F)cc4)c3C=C1CCN(S(=O)(=O)c1ccc(N3CC[C@@H](O)C3)nc1)C2 [Example 21, (R)-1-{5-[(R)-1-(4-Fluorophenyl)-4a-methoxymethyl-1,4,4a,5,6,7,8-hexahydro-1,2,6-triaza-cyclopenta[b]naphthalene-6-sulfonyl]-pyridin-2-yl}-pyrrolidin-3-ol]	> 50	> 1
COC[C@]12Cc3cnn(-c4ccc(F)cc4)c3C=C1CCN(S(=O)(=O)c1ccc(N(C)C)nc1)C2 [Example 10, (R)-6-[[6-Dimethylamino-3-pyridinyl]sulfonyl]-1-(4-fluorophenyl)-4a-methoxymethyl-1,4,7,8-tetrahydro-1,2,6-triazacyclopenta[b]naphthalene]	10 to 50	0.5 to 1
COC[C@]12Cc3cnn(-c4ccc(F)cc4)c3C=C1CCN(S(=O)(=O)c1ccc(N3CCC3)nc1)C2 [Example 11, (R)-6-[[6-(1-Azetidinyl)-3-pyridinyl]sulfonyl]-1-(4-fluorophenyl)-4a-methoxymethyl-1,4,7,8-tetrahydro-1,2,6-triazacyclopenta[b]naphthalene]	10 to 50	0.5 to 1
CN(CCO)C[C@]12Cc3cnn(-c4ccc(F)cc4)c3C=C1CCN(S(=O)(=O)c1ccc(N3CCOCC3)nc1)C2 [Example 45, 2-{[(S)-1-(4-Fluorophenyl)-6-[6-morpholin-4-yl-pyridine-3-sulfonyl)-1,4,5,6,7,8-hexahydro-1,2,6-triaza-cyclopenta[b]naphthalene-4a-ylmethyl]-methyl-amino}-ethanol]	10 to 50	> 1
O=S(=O)(c1ccc(N2CC(F)C2)nc1)N1CCC2=Cc3c(cnn3-c3ccc(F)cc3)C[C@]2(COCC2CC2)C1 [Example 30, (R)-4a-Cyclopropylmethoxymethyl-6-[6-(3-fluoroazetin-1-yl)-pyridine-3-sulfonyl]-1-(4-fluorophenyl)-1,4,4a,5,6,7,8-hexahydro-1H-1,2,6-triaza-cyclopenta[b]naphthalene]	< 10	< 0.5
COC[C@]12Cc3cnn(-c4ccc(F)cc4)c3C=C1CCN(S(=O)(=O)c1cncc(N3CC(F)C3)c1)C2 [Example 37, (R)-6-[5-(3-Fluoroazetidin-1-yl)-pyridine-3-sulfonyl]-1-(4-fluorophenyl)-4a-methoxymethyl-4,4a,5,6,7,8-hexahydro-1H-1,2,6-triaza-cyclopenta[b]naphthalene]	< 10	0.5 to 1
COC[C@]12Cc3cnn(-c4ccc(F)cc4)c3C=C1CCN(S(=O)(=O)c1cncc(N3CC[C@@H](F)C3)c1)C2 [Example 40, (R)-1-(4-Fluorophenyl)-6-[5-((R)-3-fluoropyrrolidin-1-yl)-pyridine-3-sulfonyl]-4a-methoxymethyl-4,4a,5,6,7,8-hexahydro-1H-1,2,6-triaza-cyclopenta[b]naphthalene]	< 10	> 1
COC[C@]12Cc3cnn(-c4ccc(F)cc4)c3C=C1CCN(S(=O)(=O)c1ccnc(N3CC[C@@H](O)C3)c1)C2 [Example 43, (R)-1-{4-[(R)-1-(4-Fluorophenyl)-4a-methoxymethyl-1,4,4a,5,6,7,8-hexahydro-1,2,6-triaza-cyclopenta[b]naphthalene-6-sulfonyl]-pyridin-2-yl}-pyrrolidin-3-ol]	> 50	> 1
